Assay results taken from patent publication US9751867B2 (Syngenta Participations AG, priority 2014, dated 2017).
Like-named read-outs stand apart in the source and are kept apart here.

How the values were obtained:
NK Falkone corn seeds = experiment: Corn seed germination under cold stress (15° C.); format: in vivo; details: for change in vivo at 50 µM: rate 50 μM; for change in vivo at 250 µM: rate 250 μM
Procedure: The effect of compounds of Formula (I) on the germination of NK Falkone corn seeds under cold stress was evaluated as follows.
NK Falkone corn seeds were sorted by size using 2 sieves, one excluding very big seeds and the other with round holes of 8 to 9 mm diameter. The seeds retained by the latter sieve are used for the germination test.
The corn seeds were placed in 24 well plates (each plate is considered as one experimental unit or replicate). Germination is initiated by the addition of 250 μl of distilled water containing 0.5% DMSO per well as a mean for compound solubilization. 8 replicates (ie, 8 plates) were used for each treatment characterization. Plates were sealed using seal foil (Polyolefin Art. Nr. 900320) from HJ-BIOANALYTIK. All plates were placed horizontally on trolleys in a climatic chamber at 15° C. or 23° C. in complete darkness. The experiment is laid out in a completely randomized design in climatic chamber with 75% Relative Humidity. Foils are pierced, one hole per well using a syringe after 72 hours for experiments performed at 15° C. and after 24 hours for experiments performed at 23° C.
Germination is followed over time by taking photographs at different time points. Image analysis is done automatically with a macro developed using the Image J software. A dynamic analysis of germination is carried out by fitting a logistic curve to the relationship between % germination and time for each plate (T50 parameter).
T50 is the time needed for half the seed population to be germinated. A negative value of T50 represents a faster germination rate. The mean of T50 parameters is calculated for the 8 replicates and the kinetic parameter is determined for each germination curve. Data in bold indicate germination enhancing statistically significant differences between treated seeds and control (empty vehicle treated) T50 values (P<0.05) as outlined in Table 7.

[1] = system: Orobanche cumana Wallr. seeds; experiment: Orobanche seed germination; format: in vivo; details: preconditioned O. cumana seeds, 10 days at 20° C. in the dark, N = 5 × 100 seeds, control (0.01% DMSO) 0.75% germination
Procedure: The effect of the compounds of Formula (I) on the germination of Orobanche cumana Wallr. seeds was evaluated on glass fibre filter paper (GFFP) in petri dishes. Seeds were pre-conditioned at moisture and suitable temperature to become responsive to the specific chemical germination stimulants.
Test compounds were dissolved in DMSO (10 000 mgl^−1) and stored at room temperature in a desiccator with desiccants. The stock solutions were dissolved with sterile deionised water to the appropriate final test concentration.
Seeds of O. cumana race ‘F’ were collected from sunflower fields in Manzanilla (Seville, Spain) in 2008 (seed lot IN153) and stored at room temperature. To separate seeds from heavy organic debris, a modified sucrose floatation technique as described by Hartman & Tanimonure (Plant Disease (1991), 75, 494) was applied. Seeds were filled into a separation funnel and stirred in water. When seeds floated to the surface, the water fraction containing heavy debris was discarded. Seeds were re-suspended in 2.5 M sucrose solution (specific gravity of 1.20) and heavy debris was allowed to settle down for 60 minutes. After removing debris, seeds were disinfected in 1% sodium hypochlorite solution and 0.025% (v/v) Tween 20 for 2 minutes. The seeds were decanted onto two layers of cheese cloth, rinsed with sterile deionised water and re-suspended in sterile deionised water. 2 mL of the seed suspension containing approximately 150 to 400 seeds was spread evenly on two layers of sterile glass fiber filter paper disc ([…]) in Petri dishes ( ? 9 cm). After wetting the discs with 3 mL sterile deionised water, petri dishes were sealed with parafilm. Seeds were incubated for 10 days at 20° C. in the dark for seed conditioning. The upper disc with conditioned seeds was briefly dried, transferred to a petri dish lined with a dry GFFP disc, and wetted with 6 mL of the appropriate test solution. The compounds of Formula (I) were tested at concentrations of 0.01, 0.1, and 1 mg/L. The strigolactone analogue GR24 (commercially available as a mixture of isomers) was included as positive control and 0.01% DMSO as negative control. All treatments were tested in five replicates. Seeds were re-incubated at 20° C. in the dark and examined for germination 10 days later.
The radicles of germinated seeds were stained for 5 minutes with blue ink (PELIKAN #4001, Germany) in 5% acetic acid according to Long et al (Seed Science Research (2008), 18, 125). After staining, seeds were photographed using a camera stand mounted with a digital SLR camera (Canon EOS 5D). Germination of 100 seeds per replicate was evaluated on digital images. Seeds were considered germinated when the radicle protruded from the seed coat.

[2] = Zea mays, rate 2 μM, 15° C., negative value = faster germination, control 0.5% DMSO in water, read-out: T50 (% vs control)
[3] = Zea mays, rate 10 μM, 15° C., negative value = faster germination, control 0.5% DMSO in water, read-out: T50 (% vs control)
[4] = Zea mays, 15° C., negative value = faster germination, control 0.5% DMSO in water, read-out: T50 (% vs control)
[5] = Zea mays, rate 1 μM, 15° C., negative value = faster germination, control 0.5% DMSO in water, read-out: T50 (% vs control)
[6] = Zea mays, rate 5 μM, 15° C., negative value = faster germination, control 0.5% DMSO in water, read-out: T50 (% vs control)
[7] = Zea mays, rate 25 μM, 15° C., negative value = faster germination, control 0.5% DMSO in water, read-out: T50 (% vs control)
[8] = Zea mays, read-out: T50 (% vs control)

Row | Structure (SMILES) | Germination (%) ([1]; 0.01 mg/L) | Germination (%) ([1]; 0.1 mg/L) | change in vivo at 2 µM (NK Falkone corn seeds; [2]) | change in vivo at 10 µM (NK Falkone corn seeds; [3]) | change in vivo at 50 µM (NK Falkone corn seeds; [4]) | change in vivo at 250 µM (NK Falkone corn seeds; [4]) | further results
1 | CC1=C[C@H](O/C=C2/C(=O)O[C@@H]3c4ccccc4C[C@H]23)OC1=O [GR-24, reference compound] |  |  |  |  |  |  | T50 (% vs control) (NK Falkone corn seeds; rate 0.08 μM, 15° C., negative value = faster germination, control 0.5% DMSO in water): 0.1 % vs control; T50 (% vs control) (NK Falkone corn seeds; rate 0.4 μM, 15° C., negative value = faster germination, control 0.5% DMSO in water): −2 % vs control; T50 (% vs control) (NK Falkone corn seeds; rate 2 μM, 15° C., negative value = faster germination, control 0.5% DMSO in water): −0.6 % vs control; T50 (% vs control) (NK Falkone corn seeds; rate 10 μM, 15° C., negative value = faster germination, control 0.5% DMSO in water): −2.4 % vs control
2 | CC1=CC(O/C=C2/C(=O)N(C(=O)OC(C)(C)C)C3c4ccccc4CC23)N(CC(F)(F)F)C1=O (centres unmarked) [Ia-7, tert-butyl (3E)-3-[(4-methyl-5-oxo-1-(2,2,2-trifluoroethyl)-2H-pyrrol-2-yl)oxymethylene]-2-oxo-4,8b-dihydro-3aH-indeno[1,2-b]pyrrole-1-carboxylate] | 34% | 8% |  |  |  |  | 
3 | CC1=CC(O/C=C2/C(=O)NC3c4ccccc4CC23)N(c2ccccc2)C1=O (centres unmarked) [Ib-2, (3E)-3-[(4-methyl-5-oxo-1-phenyl-2H-pyrrol-2-yl)oxymethylene]-1,3a,4,8b-tetrahydroindeno[1,2-b]pyrrol-2-one] |  |  | -2.5% | -6.1% | -6.2% |  | change in vivo at 0.4 µM (NK Falkone corn seeds; Zea mays, rate 0.4 μM, 15° C., negative value = faster germination, control 0.5% DMSO in water, read-out: T50 (% vs control)): -0.4%
4 | CON1C(=O)C(C)=CC1O/C=C1/C(=O)NC2c3ccccc3CC12 (centres unmarked) [Ib-3, (3E)-3-[(4-methyl-5-oxo-1-methoxy-2H-pyrrol-2-yl)oxymethylene]-1,3a,4,8b-tetrahydroindeno[1,2-b]pyrrol-2-one] |  |  | -4% | 3.4% | -3.8% | -5.5% | 
5 | CC1=CC(O/C=C2/C(=O)NC3c4ccccc4CC23)N(C2CC2)C1=O (centres unmarked) [Ib-5, (3E)-3-[(4-methyl-5-oxo-1-cyclopropyl-2H-pyrrol-2-yl)oxymethylene]-1,3a,4,8b-tetrahydroindeno[1,2-b]pyrrol-2-one] | 68% | 73% | -0.8% | -4.3% | -3.9% | -5.8% | 
6 | CC1=CC(O/C=C2/C(=O)NC3c4ccccc4CC23)N(CC(F)(F)F)C1=O (centres unmarked) [Ib-7, (3E)-3-[(4-methyl-5-oxo-1-(2,2,2-trifluoroethyl)-2H-pyrrol-2-yl)oxymethylene]-1,3a,4,8b-tetrahydroindeno[1,2-b]pyrrol-2-one] | 46% | 26% | 1.5% | -3% | -3.3% | -4.5% | 
7 | CC1=CC(O/C=C2/C(=O)NC3c4ccccc4CC23)N(c2ccc(F)cc2)C1=O (centres unmarked) [Ib-8, (3E)-3-[(4-methyl-5-oxo-1-(4-fluoro-phenyl)-2H-pyrrol-2-yl)oxymethylene]-1,3a,4,8b-tetrahydroindeno[1,2-b]pyrrol-2-one] |  |  |  |  |  |  | change in vivo at 1 µM (NK Falkone corn seeds; [5]): -2.6%; change in vivo at 5 µM (NK Falkone corn seeds; [6]): -2.8%; change in vivo at 25 µM (NK Falkone corn seeds; [7]): 2%; change in vivo at 125 µM (NK Falkone corn seeds; Zea mays, rate 125 μM, 15° C., negative value = faster germination, control 0.5% DMSO in water, read-out: T50 (% vs control)): -2.3%
8 | CC1=CC(O/C=C2/C(=O)NC3c4ccccc4CC23)N(c2cccc(F)c2)C1=O (centres unmarked) [Ib-9, (3E)-3-[(4-methyl-5-oxo-1-(3-fluoro-phenyl)-2H-pyrrol-2-yl)oxymethylene]-1,3a,4,8b-tetrahydroindeno[1,2-b]pyrrol-2-one] |  |  |  |  |  |  | change in vivo at 0.2 µM (NK Falkone corn seeds; Zea mays, rate 0.2 μM, 15° C., negative value = faster germination, control 0.5% DMSO in water, read-out: T50 (% vs control)): -0.8%; change in vivo at 1 µM (NK Falkone corn seeds; [5]): -4.8%; change in vivo at 5 µM (NK Falkone corn seeds; [6]): -5.6%; change in vivo at 25 µM (NK Falkone corn seeds; [7]): -5.2%
9 | CC1=CC(O/C=C2/C(=O)NC3c4ccccc4CC23)N(c2cc(C(F)(F)F)cc(C(F)(F)F)c2)C1=O (centres unmarked) [Ib-13, (3E)-3-[(4-methyl-5-oxo-1-(3,5-bistrifluoromethyl-phenyl)-2H-pyrrol-2-yl)oxymethylene]-1,3a,4,8b-tetrahydroindeno[1,2-b]pyrrol-2-one] |  |  |  |  |  |  | change in vivo at 0.2 µM (NK Falkone corn seeds; [8]): 1%; change in vivo at 1 µM (NK Falkone corn seeds; [8]): -3.6%; change in vivo at 5 µM (NK Falkone corn seeds; [8]): -3.6%; change in vivo at 25 µM (NK Falkone corn seeds; [8]): -2.7%
